Laboratory results as given in US8597903B2, “Biotinidase assay” (Wallac Oy, priority 2009, dated 2013).

Assays:
biotinidase = target: T1, biotinidase (Homo sapiens, UniProt P43251); assay: Heterogenous biotinidase assay (DELFIA); format: biochemical; conditions: 10 nM substrate, blood spots, +37° C. for 2 hours, Eu signal by time-resolved fluorometer (FIG. 1-3)
T1 construct: The blood spots (diameter 3.2 mm) were punched to the wells; from tissue; host or cells: dried blood spots (whole blood)
T1 sequence (P43251 22-523): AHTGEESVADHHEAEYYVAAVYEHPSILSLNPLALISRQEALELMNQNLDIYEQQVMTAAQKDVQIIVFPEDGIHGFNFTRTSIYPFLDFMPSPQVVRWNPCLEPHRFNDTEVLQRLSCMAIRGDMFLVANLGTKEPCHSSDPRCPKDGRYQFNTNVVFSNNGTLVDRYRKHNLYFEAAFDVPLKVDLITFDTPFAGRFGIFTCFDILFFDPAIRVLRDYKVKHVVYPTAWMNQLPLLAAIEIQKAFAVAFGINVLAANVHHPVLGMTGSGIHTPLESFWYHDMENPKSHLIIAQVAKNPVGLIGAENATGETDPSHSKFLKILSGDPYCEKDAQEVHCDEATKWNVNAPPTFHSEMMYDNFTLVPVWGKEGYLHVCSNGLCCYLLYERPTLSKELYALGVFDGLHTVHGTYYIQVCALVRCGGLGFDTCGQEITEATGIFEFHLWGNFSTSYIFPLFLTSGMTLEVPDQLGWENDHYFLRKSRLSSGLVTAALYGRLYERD
Method: A heterogenous assay is based on the use of streptavidin-specific antibody, streptavidin and biotinidase substrates (compounds 3, 5 and 7). Accordingly, 200 μA of anti-streptavidin antibody (1 μg per well, Novus Biologicals cat. No. NB200-448) was pipetted to the wells of the microplate in coating buffer (50 mM TRIS pH 7.4+50 mM NaCl). The plate was incubated at RT for 3 h. After that the plate was washed 2 times with Delfia Wash solution. The blood spots (diameter 3.2 mm) were punched to the wells. 10 nM of biotinidase substrate was added to the wells in reaction buffer (50 mM MES pH 6, 0.05% BSA, 0.01% TWEEN, 50 mM NaCl). The plate was incubated with slow shaking at +37° C. for 2 hours. 100 μA 20 nM streptavidin in reaction buffer was added into the wells. The plate was incubated for 1 hour at RT with slow shaking. The plate was washed for 4 times with Delfia Wash solution. 200 μA of Delfia Inducer was added to the wells and incubated for 15 minutes at RT. The Eu signal was measured with a time-resolved fluorometer. The more there is biotinidase enzyme in the sample the lower the Eu signal is.

[1] = Storage stability of the substrate; format: physicochemical; conditions: prolonged storage at ambient temperature
Method: Biocytin (8, 5 mg, 13 μmol) and the isothiocyanate chelate 9 (23 mg, 33 μmol) synthesized as disclosed in U.S. Pat. No. 4,920,195, were dissolved in the mixture of pyridine, water and triethylamine (9:1.5:01, v/v/v; 250 μL) and the mixture was stirred overnight at rt. The product was isolated by precipitation with acetone and purified with HPLC. Compound 10: ESI-TOF MS found, 1047.13; calcd for C40H46EuN8O12S^−1047.18.

Row | Compound | function as a substrate for the enzyme in a biotinidase assay (biotinidase) | stability on storage [1]
1 | O=C(O)CN(CCN(CC(=O)O)CC(Cc1ccc(NC(=O)CCCCCNC(=O)CCCCC2SCC3NC(=O)NC32)cc1)N(CC(=O)O)CC(=O)O)CC(=O)O (stereo not drawn) [Compound 5] | functions as a favorable substrate | –
2 | O=C(O)CN(CC(=O)O)Cc1cc(C#Cc2ccc(NC(=S)NC(CCCCNC(=O)CCCCC3SCC4NC(=O)NC43)C(=O)O)cc2)cc(CN(CC(=O)O)CC(=O)O)n1 (stereo not drawn) [Compound 10] | – | prone to Edman degradation
3 | O=C(O)CN(CCN(CC(=O)O)CC(Cc1ccc(NC(=O)CCCCC2SCC3NC(=O)NC32)cc1)N(CC(=O)O)CC(=O)O)CC(=O)O (stereo not drawn) [Compound 3] | does not function as a substrate | –
